Test results reported in paper PMC11062899, “De novo development of small cyclic peptides that are orally bioavailable” (Nature Chemical Biology, 2023).
pIC50, pKi: −log10 of the molar value. “And” between values parts separate entries of the source, which are not always exact repeats. Equal values may be shown once. Read-outs that look alike come from different tables or passages of the source.

Tests used:
[1] = Passive artificial membrane permeability (PAMPA);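 for Permeability% Average: top well sample relative to theoretical equilibrium sample by TIC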
human α-thrombin = human α-thrombin (Homo sapiens, UniProt P00734); assay: Protease inhibition, Ki for human α-thrombin (fluorogenic substrate Z-Gly-Gly-Arg-AMC); format: biochemical; details: for Human alpha thrombin inhibition, slope normalized to DMSO: replicates R1-R3
Protocol: (§1) The inhibition constants (Ki) of cyclic peptides were calculated by measuring thrombin inhibition in the presence of different concentrations of the cyclic peptides. […] Human α-thrombin (Molecular Innovations) and rat α-thrombin (Molecular Innovations) were used at final concentrations of 2 nM and 3 nM, respectively, and fluorogenic substrate (Z-Gly-Gly-Arg-AMC, Bachem) was used at a concentration of 50 μM. Enzymatic activity was determined by measuring fluorescent gain on a Tecan Infinite M200 Pro microplate reader (excitation: 360 nm, emission: 465 nm) or a PHERAstar FSX microplate reader (excitation: 380 nm, emission: 440 nm) for 30 min at 25 °C with a fluorescent readout every 3 min. The two instruments were controlled with Tecan Infinite M200 Pro instrument software (iControl, version 1.12) and PHERAstar FSX software (version 5.70, edition 8), respectively. Protease inhibition was calculated by comparing the enzymatic activity to a control without cyclic peptide.
(§2) Half maximal inhibitory concentration (IC50) values were determined using a four-parameter logistic regression model in GraphPad Prism 9 to fit sigmoidal curves to the acquired data points according to equation (2) below.2 y=b+a−b/1+10^(logIC50−x)p where a and b represent the measured inhibition maximum and minimum, respectively; x is the logarithm of peptide concentration; y is the thrombin activity compared to a control without the cyclic peptide; and p is the Hill coefficient.
(§3) Ki values were calculated using the IC50 and the Cheng–Prusoff equation (equation (3)).3 Ki=IC50/1+S0/Km where Km is the Michaelis–Menten constant of the enzyme for the substrate used in the assay, and [S]0 is the initial substrate concentration.

rat α-thrombin = target: T1, rat α-thrombin (Rattus norvegicus, UniProt P18292); assay: Protease inhibition, Ki for rat α-thrombin (fluorogenic substrate Z-Gly-Gly-Arg-AMC); format: biochemical; details: for Rat alpha thrombin inhibition, slope normalized to DMSO: replicates R1-R3
T1 construct: rat α-thrombin (Molecular Innovations) were used at final concentrations of 2 nM and 3 nM; purchased Molecular Innovations
Protocol: as §1, §2, §3

[2] = peptide concentration 1.00E+02 uM
[3] = peptide concentration 1.19E-05 uM
[4] = peptide concentration 1.22E-02 uM
[5] = peptide concentration 1.25E+01 uM
[6] = peptide concentration 1.53E-03 uM
[7] = peptide concentration 1.56E+00 uM
[8] = peptide concentration 1.91E-04 uM
[9] = peptide concentration 1.95E-01 uM
[10] = peptide concentration 2.38E-05 uM
[11] = peptide concentration 2.44E-02 uM
[12] = peptide concentration 2.50E+01 uM
[13] = peptide concentration 3.05E-03 uM
[14] = peptide concentration 3.12E+00 uM
[15] = peptide concentration 3.81E-04 uM
[16] = peptide concentration 3.91E-01 uM
[17] = peptide concentration 4.77E-05 uM
[18] = peptide concentration 4.88E-02 uM
[19] = peptide concentration 5.00E+01 uM
[20] = peptide concentration 6.10E-03 uM
[21] = peptide concentration 6.25E+00 uM
[22] = peptide concentration 7.63E-04 uM
[23] = peptide concentration 7.81E-01 uM
[24] = peptide concentration 9.54E-05 uM
[25] = peptide concentration 9.77E-02 uM

PAMPA permeability: % permeability ([1]; 50 μM, 12–18 h, acceptor concentration relative to equilibrium): 70 ± 4%
Permeability% (single replicates R1–R3) ([1]; 50 μM, 13 h (Fig. 5d)): 73.98% and 66.95% and 68.74%
Permeability% Average ([1]; 50 μM, 13 h (Fig. 5d)): 69.9%
Papp at 50 μM ([1]; PAMPA, pH 7.4): 11.5 ×10⁻⁶ cm/s
pKi (human α-thrombin; average of R1-R3, read-out: Human alpha thrombin inhibition, Ki Average): 5.37
Human alpha thrombin inhibition, slope normalized to DMSO (human α-thrombin; [2]): 7.2 and 18.3 and 14.2
Human alpha thrombin inhibition, slope normalized to DMSO (human α-thrombin; [3]): 106.2 and 105.2 and 96.5
Human alpha thrombin inhibition, slope normalized to DMSO (human α-thrombin; [4]): 97.4 and 143.9 and 87.6
Human alpha thrombin inhibition, slope normalized to DMSO (human α-thrombin; [5]): 39.9 and 42.6 and 31.3
Human alpha thrombin inhibition, slope normalized to DMSO (human α-thrombin; [6]): 107.6 and 85.1 and 100.8
Human alpha thrombin inhibition, slope normalized to DMSO (human α-thrombin; [7]): 63.5 and 67.4 and 86.8
Human alpha thrombin inhibition, slope normalized to DMSO (human α-thrombin; [8]): 94.4 and 101.9 and 82.4
Human alpha thrombin inhibition, slope normalized to DMSO (human α-thrombin; [9]): 80.8 and 88.6 and 87.2
Human alpha thrombin inhibition, slope normalized to DMSO (human α-thrombin; [10]): 104.6 and 100.1 and 103.6
Human alpha thrombin inhibition, slope normalized to DMSO (human α-thrombin; [11]): 87.3 and 61.5 and 110.7
Human alpha thrombin inhibition, slope normalized to DMSO (human α-thrombin; [12]): 18.7 and 30.4 and 26.6
Human alpha thrombin inhibition, slope normalized to DMSO (human α-thrombin; [13]): 107.4 and 96.1 and 108.0
Human alpha thrombin inhibition, slope normalized to DMSO (human α-thrombin; [14]): 66.3 and 72.5 and 68.3
Human alpha thrombin inhibition, slope normalized to DMSO (human α-thrombin; [15]): 108.2 and 71.6 and 89.8
Human alpha thrombin inhibition, slope normalized to DMSO (human α-thrombin; [16]): 98.6 and 87.2 and 97.0
Human alpha thrombin inhibition, slope normalized to DMSO (human α-thrombin; [17]): 102.6 and 101.4 and 90.5
Human alpha thrombin inhibition, slope normalized to DMSO (human α-thrombin; [18]): 86.2 and 70.0 and 72.9
Human alpha thrombin inhibition, slope normalized to DMSO (human α-thrombin; [19]): 22.0 and 20.2 and 22.5
Human alpha thrombin inhibition, slope normalized to DMSO (human α-thrombin; [20]): 107.1 and 94.4 and 65.9
Human alpha thrombin inhibition, slope normalized to DMSO (human α-thrombin; [21]): 53.3 and 30.4 and 58.6
Human alpha thrombin inhibition, slope normalized to DMSO (human α-thrombin; [22]): 101.4 and 104.3 and 107.6
Human alpha thrombin inhibition, slope normalized to DMSO (human α-thrombin; [23]): 93.7 and 88.2 and 91.3
Human alpha thrombin inhibition, slope normalized to DMSO (human α-thrombin; [24]): 107.7 and 104.4 and 105.3
Human alpha thrombin inhibition, slope normalized to DMSO (human α-thrombin; [25]): 100.1 and 100.4 and 85.5
pIC50 (human α-thrombin; single replicates R1-R3, read-out: Human alpha thrombin inhibition, IC50): 5.22 and 5.36 and 5.21
pKi (rat α-thrombin; average of R1-R3, read-out: Rat alpha thrombin inhibition, Ki Average): 5.92
Rat alpha thrombin inhibition, slope normalized to DMSO (rat α-thrombin; [2]): 8.6 and 7.4 and 11.4
Rat alpha thrombin inhibition, slope normalized to DMSO (rat α-thrombin; [3]): 107.5 and 103.5 and 101.6
Rat alpha thrombin inhibition, slope normalized to DMSO (rat α-thrombin; [4]): 107.3 and 99.3 and 79.0
Rat alpha thrombin inhibition, slope normalized to DMSO (rat α-thrombin; [5]): 23.0 and 17.3 and 19.0
Rat alpha thrombin inhibition, slope normalized to DMSO (rat α-thrombin; [6]): 108.1 and 101.8 and 103.2
Rat alpha thrombin inhibition, slope normalized to DMSO (rat α-thrombin; [7]): 38.0 and 68.3 and 64.4
Rat alpha thrombin inhibition, slope normalized to DMSO (rat α-thrombin; [8]): 111.1 and 96.6 and 97.0
Rat alpha thrombin inhibition, slope normalized to DMSO (rat α-thrombin; [9]): 80.3 and 102.2 and 95.7
Rat alpha thrombin inhibition, slope normalized to DMSO (rat α-thrombin; [10]): 106.4 and 99.5 and 91.3
Rat alpha thrombin inhibition, slope normalized to DMSO (rat α-thrombin; [11]): 104.4 and 97.3 and 93.2
Rat alpha thrombin inhibition, slope normalized to DMSO (rat α-thrombin; [12]): 14.0 and 11.2 and 8.1
Rat alpha thrombin inhibition, slope normalized to DMSO (rat α-thrombin; [13]): 71.4 and 100.8 and 98.3
Rat alpha thrombin inhibition, slope normalized to DMSO (rat α-thrombin; [14]): 53.4 and 47.3 and 48.9
Rat alpha thrombin inhibition, slope normalized to DMSO (rat α-thrombin; [15]): 103.9 and 95.9 and 106.5
Rat alpha thrombin inhibition, slope normalized to DMSO (rat α-thrombin; [16]): 72.4 and 80.6 and 86.0
Rat alpha thrombin inhibition, slope normalized to DMSO (rat α-thrombin; [17]): 110.4 and 101.0 and 101.1
Rat alpha thrombin inhibition, slope normalized to DMSO (rat α-thrombin; [18]): 95.5 and 75.4 and 93.2
Rat alpha thrombin inhibition, slope normalized to DMSO (rat α-thrombin; [19]): 9.4 and 9.6 and 8.3
Rat alpha thrombin inhibition, slope normalized to DMSO (rat α-thrombin; [20]): 86.0 and 97.7 and 122.2
Rat alpha thrombin inhibition, slope normalized to DMSO (rat α-thrombin; [21]): 35.0 and 30.8 and 29.6
Rat alpha thrombin inhibition, slope normalized to DMSO (rat α-thrombin; [22]): 106.2 and 91.0 and 101.5
Rat alpha thrombin inhibition, slope normalized to DMSO (rat α-thrombin; [23]): 51.1 and 75.3 and 70.4
Rat alpha thrombin inhibition, slope normalized to DMSO (rat α-thrombin; [24]): 108.0 and 102.0 and 103.8
Rat alpha thrombin inhibition, slope normalized to DMSO (rat α-thrombin; [25]): 101.3 and 96.8 and 84.0
pIC50 (rat α-thrombin; single replicates R1-R3, read-out: Rat alpha thrombin inhibition, IC50): 5.87 and 5.57 and 5.61
Compound: O=C1C[C@H]2CCCN2C(=O)[C@H](Cc2ccccc2)NC(=O)[C@@H](NC(=O)c2ccc(Cl)s2)CCC=CCCN1 [compound 39]
Ki (human α-thrombin; single replicates R1-R3, read-out: Human alpha thrombin inhibition, Ki): 4.67 µM (2×) and 3.34 µM (2×) and 4.71 µM (2×)
Ki (rat α-thrombin; single replicates R1-R3, read-out: Rat alpha thrombin inhibition, Ki): 741 nM (2×) and 1.48 µM (2×) and 1.35 µM (2×)
